US20170209605A1, “CARBOHYDRATE FUNCTIONALIZED CATANIONIC SURFACTANT VESICLES FOR DRUG DELIVERY” (University of Maryland, College Park, priority 2007, published 2017)

Assay: Incorporation of glycoconjugate into SDBS-rich vesicles (SEC, colorimetric detection)
Assay type: physicochemical
Details: SDBS/CTAT vesicles, twelve carbon tail
Excerpt: In an experiment, glycoconjugates consisting of eight carbon tails were used. In all SDBS-rich vesicle test cases 18-25% of the conjugate eluted with the vesicle fractions. At the incorporation levels summarized in Table 1, the ratio of carbohydrate conjugate to surfactant is approximately 1:100. […] In another experiment, a glucose glycoconjugate with a twelve carbon tail, n-dodecyl-β-D-glucopyranoside (C12-glucose), was used. […] The method for preparing these vesicles is now described. Vesicles were prepared with the surfactants […], and C12-glu. […] Total surfactant concentration was kept constant at 27 mM. The mole ratio of SDBS to CTAT was 3:1 in all cases (70:30 w/w). For vesicle samples containing different mole fractions of C12-glu, the amount of SDBS and CTAT was adjusted accordingly to keep the stated ratio of ionic surfactants constant. […] Samples were then passed through a 0.45 μm syringe filter to remove impurity particles such as dust.

share of the vesicle bilayer that can be composed of the glycoconjugate: up to 40 mole percent
Compound: CCCCCCCCCCCCO[C@@H]1O[C@H](CO)[C@@H](O)[C@H](O)[C@H]1O [C12-glucose, n-dodecyl-β-D-glucopyranoside]
